In one experiment the test system is U-251 MG. As to the kind of experiment: cells. To be noted: Homo sapiens, U-251. Also on record: glioma cell line sensitivity to 2OHOA, half maximal inhibitory concentration.
The next experiment concerns U-118 MG. The experiment in a line: cells. Also on record: glioma cell line sensitivity to 2OHOA, half maximal inhibitory concentration. To be noted: Homo sapiens, U-118-MG.
The subject of a further experiment is U-87 MG. The experiment in a line: cells. Also on record: glioma cell line sensitivity to 2OHOA, half maximal inhibitory concentration. To be noted: Homo sapiens, U-87 MG.
The next experiment has as its system SF-295. As to the kind of experiment: cells. Also on record: glioma cell line sensitivity to 2OHOA, half maximal inhibitory concentration. Particulars: Homo sapiens, SF-295.
For another experiment, the system named is SF-268. The experiment in a line: cells. Details: glioma cell line sensitivity to 2OHOA, half maximal inhibitory concentration. Particulars: Homo sapiens, SF-268.
A further experiment deals with T1, furin (Homo sapiens, UniProt P09958).
T1 construct: commercial recombinant Human Furin
As to the kind of experiment: SPR (Biacore X100, furin amine-coupled on CM5, steady-state affinity); also inhibits recombinant furin in a fluorimetric assay. It counts as binding.

T1 sequence (P09958 108-794): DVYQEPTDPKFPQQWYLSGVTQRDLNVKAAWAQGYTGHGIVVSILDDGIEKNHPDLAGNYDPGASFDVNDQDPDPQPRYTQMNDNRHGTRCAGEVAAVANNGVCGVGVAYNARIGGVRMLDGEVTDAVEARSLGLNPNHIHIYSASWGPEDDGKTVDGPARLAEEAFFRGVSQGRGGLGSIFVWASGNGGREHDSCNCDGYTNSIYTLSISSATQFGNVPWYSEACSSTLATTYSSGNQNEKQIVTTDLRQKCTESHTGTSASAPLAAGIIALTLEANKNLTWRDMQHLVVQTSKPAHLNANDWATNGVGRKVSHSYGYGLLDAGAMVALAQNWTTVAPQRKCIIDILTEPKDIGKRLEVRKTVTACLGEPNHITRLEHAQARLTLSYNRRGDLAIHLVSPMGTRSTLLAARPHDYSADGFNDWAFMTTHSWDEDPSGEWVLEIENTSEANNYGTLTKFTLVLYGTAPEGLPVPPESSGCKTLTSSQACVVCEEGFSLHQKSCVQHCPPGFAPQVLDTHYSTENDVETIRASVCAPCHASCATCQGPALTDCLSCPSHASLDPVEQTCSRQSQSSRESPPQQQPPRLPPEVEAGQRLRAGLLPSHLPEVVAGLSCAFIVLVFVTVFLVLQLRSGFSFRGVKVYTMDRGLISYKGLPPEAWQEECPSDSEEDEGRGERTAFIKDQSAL

`CCCCCCCC/C=C\CCCCCCC(O)C(=O)O` (stereo not drawn) [2OHOA, 2-hydroxy-9-cis-ocadecenoic acid]: the IC50 was 427 µM in the experiment on U-251 MG; 180 µM with U-118 MG; 172 µM in the experiment with U-87 MG; 300 µM in the experiment on SF-295; 240 µM in the experiment with SF-268. Moreover, the equilibrium dissociation constant (Kd) at furin is 19.5 µM.
